In data set [1] the test system is SARS-CoV-2, isolate USA-WA1/2020. Description: microbe, parasite or virus in culture. In kind it is cell-based. The following applies: HeLa-ACE2 SARS-CoV-2 antiviral effect without P-gp inhibitor; for perc_max_measured: maximum measured response of dose series; for perc_min_measured: minimum measured response of dose series; for EC50: read-out: ec50; for EC90: read-out: ec90.

Data set [2] can be described thus: Hepatic microsomal stability, HLM. The data set is classed as in vitro ADME, human. The following applies: In vitro human liver microsomal stability; for perc_remaining_no_cofactor: no cofactor.
Data set [3] is described as follows: Hepatic microsomal stability, MLM. The conditions noted are these: In vitro mouse liver microsomal stability; for perc_remaining_no_cofactor: no cofactor. The data set is classed as in vitro ADME.
The subject of a further data set is HeLa-ACE2 cells. The following applies: for perc_max_measured: highest measured response of the dose series; for perc_min_measured: lowest measured response of the dose series.
The next data set is described as follows: LogD. The conditions noted are these: pH 7.4; In vitro LogD.
Data set [4] can be described thus: In vitro kinetic solubility. The conditions noted are these: In vitro kinetic solubility, ph 7.4.
A short description of data set [5]: Permeability Papp (AB) MDR1/MDCKII. The conditions noted are these: In vitro MDR1-MDCKII permeability; for papp_a_to_b_mean: A to B; for perc_recovery_a_to_b_mean: recovery A to B.
A further data set can be described thus: in vitro. The conditions noted are these: human, hela-ace2 cells, 50.0.
[6] abbreviates: protocol HeLa-ACE2 cytotoxicity.

The structures appear in SMILES notation. Converted amounts (≈) assume the structure as drawn. Read-outs that look alike come from different tables or passages of the source.

For the compound `Cc1nn(C)cc1-c1cc2c(N[C@H](c3ccc4c(c3)S(=O)(=O)CCC4)C(C)C)ncnc2[nH]1` (single isomer, unassigned) [ASAP-0011448], in data set [1], the perc_max_measured amounted to 131.643%, the perc_min_measured is given as 93.649%, the EC50 is above 20 µM and the EC90 was above 20 µM. Besides, in data set [2], the clint was 251.0 µL/min/mg, the perc_remaining is given as 2.0%, the t_half turned out to be 6.6 min and the perc_remaining_no_cofactor came out at 116.0%. In addition, in data set [3], the clint was found to be 390.0 µL/min/mg, the perc_remaining turned out to be 1.0%, the t_half is recorded as 4.3 min and the perc_remaining_no_cofactor was found to be 103.0%. In the data set with HeLa-ACE2 cells (setting [6]), the CC50 is above 20 µM, the cc10 is above 20.0 µM, the perc_max_measured amounted to 94.816% and the perc_min_measured worked out at 77.647%. In the data set “LogD”, this compound registered a logd of 3.4. The same compound displayed a solubility_mean in data set [4] of 63 µM (≈ 29.3 µg/mL). Moreover, in data set [5] (mean), the papp_a_to_b_mean was determined as 3.69 ×10⁻⁶ cm/s and the perc_recovery_a_to_b_mean was found to be 77.9%.

With `CCNC(=O)c1cc2c(N[C@H](c3ccc4c(c3)OCCO4)C(C)C)ncnc2[nH]1` (single isomer, unassigned) [ASAP-0013827], in data set [1], the perc_max_measured is listed as 113.12%, the perc_min_measured was 80.543%, the EC50 was above 20 µM and the EC90 is above 20 µM. For the same compound, in data set [2], the clint turned out to be 1329.0 µL/min/mg, the perc_remaining is recorded as 1.0%, the t_half was 1.3 min and the perc_remaining_no_cofactor is 97.0%. In data set [3], the clint was 72.0 µL/min/mg, the perc_remaining amounted to 29.0%, the t_half is listed as 23.2 min and the perc_remaining_no_cofactor is 92.0%. In the data set with HeLa-ACE2 cells (HeLa-ACE2 cytotoxicity), the perc_max_measured is reported as 106.128% and the perc_min_measured is 83.696%. In “LogD”, this compound yielded a logd of 3.6. In data set [4], the solubility_mean amounted to 13 µM (≈ 5.14 µg/mL). Also, in data set [5] (no inhibitor), the papp_a_to_b_mean turned out to be 2.9 ×10⁻⁶ cm/s and the perc_recovery_a_to_b_mean was 81.7%.

Consider `CNC(=O)c1cc2c(N[C@@H](c3ccc4c(c3)NC(=O)CO4)C(C)C)ncnc2[nH]1` [ASAP-0011219], for which, in data set [2], the clint was found to be 175.0 µL/min/mg, the perc_remaining came out at 6.0%, the t_half was determined as 9.6 min and the perc_remaining_no_cofactor was 96.0%. In data set [3], the clint stood at 33.0 µL/min/mg, the perc_remaining is 57.0%, the t_half was 51.2 min and the perc_remaining_no_cofactor was found to be 99.0%. Moreover, in the data set “LogD”, the logd is 2.9. Further, in data set [4], the solubility_mean worked out at 380 µM (≈ 150 µg/mL). Also, in data set [5] (mean), the papp_a_to_b_mean was found to be 1.21 ×10⁻⁶ cm/s and the perc_recovery_a_to_b_mean is 105.0%.

Take `CC(C)[C@H](Nc1ncnc2[nH]c(-c3cnn(CC(N)=O)c3)cc12)c1ccc2c(n1)OCCO2` [ASAP-0012307]: in data set [2], the clint turned out to be 12.0 µL/min/mg, the perc_remaining is reported as 85.0%, the t_half came to 134.5 min and the perc_remaining_no_cofactor is given as 90.0%. Also, in data set [3], the clint turned out to be 5.0 µL/min/mg, the perc_remaining came to 99.0%, the t_half was determined as 359.1 min and the perc_remaining_no_cofactor came to 110.0%. In addition, the logd in the data set “LogD” stood at 2.3. This compound also yielded a solubility_mean in data set [4] of 377 µM (≈ 169 µg/mL). In data set [5] (no inhibitor), this compound gave a papp_a_to_b_mean of 1.27 ×10⁻⁶ cm/s and a perc_recovery_a_to_b_mean of 100.0%.

With `CCNC(=O)c1cc2c(N[C@H](c3ccc4c(c3)S(=O)(=O)CCC4)C(C)C)ncnc2[nH]1` [ASAP-0012325], in data set [2], the clint was 109.0 µL/min/mg, the perc_remaining amounted to 17.0%, the t_half stood at 15.4 min and the perc_remaining_no_cofactor came to 102.0%. In data set [3], the clint was determined as 64.0 µL/min/mg, the perc_remaining turned out to be 34.0%, the t_half is 26.3 min and the perc_remaining_no_cofactor turned out to be 97.0%. The logd in the data set “LogD” was 2.7. Further, in data set [4], the solubility_mean is 337 µM (≈ 149 µg/mL). In data set [5] (no inhibitor), this compound displayed a papp_a_to_b_mean of 0.717 ×10⁻⁶ cm/s and a perc_recovery_a_to_b_mean of 88.3%.

In the case of `CC(C)[C@H](Nc1ncnc2[nH]c(C(=O)N[C@H]3CCN(C)C3)cc12)c1ccc2c(c1)S(=O)(=O)CCC2` [ASAP-0012334], in data set [2], the clint amounted to 11.0 µL/min/mg, the perc_remaining worked out at 80.0%, the t_half stood at 149.8 min and the perc_remaining_no_cofactor was 98.0%. Besides, in data set [3], the clint turned out to be 1.0 µL/min/mg, the perc_remaining was 98.0%, the t_half is listed as 1540.5 min and the perc_remaining_no_cofactor came out at 97.0%. Also, in “LogD”, the logd turned out to be 1.4. For the same compound, in data set [4], the solubility_mean worked out at 396 µM (≈ 197 µg/mL). In addition, in data set [5] (no inhibitor), the papp_a_to_b_mean is 0.175 ×10⁻⁶ cm/s and the perc_recovery_a_to_b_mean was found to be 89.9%.

`CC(C)[C@H](Nc1ncnc2[nH]c(-c3cnn(CC(=O)N(C)C)c3)cc12)c1ccc2c(c1)S(=O)(=O)CCC2` [ASAP-0013744]: in data set [2], the clint is 92.0 µL/min/mg, the perc_remaining is listed as 22.0%, the t_half is reported as 18.1 min and the perc_remaining_no_cofactor came to 97.0%. Besides, in data set [3], the clint turned out to be 124.0 µL/min/mg, the perc_remaining is 13.0%, the t_half was found to be 13.5 min and the perc_remaining_no_cofactor is reported as 98.0%. Also, the logd in the data set “LogD” is reported as 2.2. In data set [4], this compound registered a solubility_mean of 361 µM (≈ 188 µg/mL). Moreover, in data set [5] (no inhibitor), the papp_a_to_b_mean is 1.17 ×10⁻⁶ cm/s and the perc_recovery_a_to_b_mean stood at 116.0%.

For `CC(C)[C@@H](Nc1ncnc2[nH]c(-c3cnn(CC(=O)N(C)C)c3)cc12)c1ccc2c(c1)S(=O)(=O)CCC2` [ASAP-0013747], in data set [2], the clint amounted to 297.0 µL/min/mg, the perc_remaining is 1.0%, the t_half was 5.6 min and the perc_remaining_no_cofactor worked out at 99.0%. Also, in data set [3], the clint turned out to be 31.0 µL/min/mg, the perc_remaining was found to be 59.0%, the t_half was determined as 53.8 min and the perc_remaining_no_cofactor was found to be 102.0%. In “LogD”, the logd stood at 2.2. This compound also came in with a solubility_mean in data set [4] of 256 µM (≈ 134 µg/mL). In data set [5] (no inhibitor), this compound displayed a papp_a_to_b_mean of 0.555 ×10⁻⁶ cm/s and a perc_recovery_a_to_b_mean of 78.8%.

Take `CCNC(=O)c1cc2c(N[C@H](c3ccc4c(c3)OCCO4)C(C)C)ncnc2[nH]1` [ASAP-0013824]: in data set [1], the perc_max_measured was found to be 109.949%, the perc_min_measured is on record as 49.504%, the EC50 is 19.7 µM and the EC90 is above 20 µM. For the same compound, in data set [2], the clint amounted to 67.0 µL/min/mg, the perc_remaining is listed as 32.0%, the t_half worked out at 24.8 min and the perc_remaining_no_cofactor is listed as 100.0%. Besides, in data set [3], the clint came to 48.0 µL/min/mg, the perc_remaining is recorded as 47.0%, the t_half came to 34.6 min and the perc_remaining_no_cofactor worked out at 94.0%. In the data set on HeLa-ACE2 cells (HeLa-ACE2 cytotoxicity), the CC50 is above 20 µM, the cc10 was above 20.0 µM, the perc_max_measured amounted to 99.37% and the perc_min_measured turned out to be 90.423%. In the data set “LogD”, this compound came in with a logd of 3.6. The same compound displayed a solubility_mean in data set [4] of 263 µM (≈ 104 µg/mL). In data set [5] (no inhibitor), this compound yielded a papp_a_to_b_mean of 2.7 ×10⁻⁶ cm/s and a perc_recovery_a_to_b_mean of 94.3%.

Take `C[C@@H](C(=O)O)[C@H](NC(=O)c1ncnc2[nH]ccc12)c1ccc(Br)cc1` [ASAP-0014726]: in data set [1], the perc_max_measured turned out to be 129.968% and the perc_min_measured was 44.709%. Also, in the data set with HeLa-ACE2 cells (HeLa-ACE2 cytotoxicity), the cytotoxic concentration (CC50) is above 20 µM, the cc10 was above 20.0 µM, the perc_max_measured is 106.212% and the perc_min_measured is recorded as 72.067%. In addition, in the data set “in vitro”, the CC50 at 24 h was above 20 µM.

For `COc1ccc([C@@H](Cc2nnn[nH]2)NC(=O)c2ncnc3[nH]ccc23)cc1` [ASAP-0015384], in data set [1], the perc_max_measured is 136.92%, the perc_min_measured is 93.837%, the EC50 was above 20 µM and the EC90 is above 20 µM. Moreover, in the data set on HeLa-ACE2 cells (HeLa-ACE2 cytotoxicity), the CC50 is above 20 µM, the cc10 is above 20.0 µM, the perc_max_measured turned out to be 99.805% and the perc_min_measured was 83.484%. For the same compound, the CC50 at 24 h in the data set “in vitro” was above 20 µM.
